Test: Cleavage experiments with thiol cleavage agents, RP-HPLC (FIG. 77, 78A-B)
Details: RP-HPLC after 10 minutes of incubation with cleave reagent
Text: In addition to these a variety of suitable cleaving agents can be used such as Bis(2-mercaptoethyl)sulfone (BMS) and N,N′-dimethyl-N,N-bis(mercaptoacetyl)hydrazine (DMH) (Singh et al., Bioorg. Chem., 22, 109-115 (1994). Reactions can be further catalyzed by inclusion of selenols (Singh et al. Anal Biochem. 1995 Nov. 20; 232(1):86-91 [18]). Borohydrides, such as sodium borohydrides can also be used for this purpose (Stahl et al., Anal. Chem., 1957, 29 (1), pp 154-155 [19]) as well as ascorbic acid (Nardai et al., J. Biol. Chem. 276, 8825-8828 (2001)). In addition, enzymatic methods for cleavage of disulfide bonds are also well known such as disulfide and thioreductase and can be used with compounds of the present invention (Holmgren et al., Methods in Enzymology, Volume 252, 1995, Pages 199-208 [21]).

Compound | composition of cleavage reaction mixture (extent of cleavage)
O[C@H](CS)[C@H](O)CS (racemic) [DTT, dithiothreitol] | full cleavage of both linker and the 3′-protective groups
N[C@@H](CS)C(=O)O [L-cysteine] | full cleavage of both linker and the 3′-protective groups
NCCS [cysteamine] | full cleavage of both linker and the 3′-protective groups
OC(=S)CCC(O)=S [dithiosuccinic acid] | selective cleavage of 3′-O-protective group
